{
  "source": "paper PMC4956231",
  "about": "“Molecular Mechanisms for Drug Hypersensitivity Induced by the Malaria Parasite’s Chloroquine Resistance Transporter” (PLoS Pathogens, 2016)",
  "key": {"noninjected oocytes": {"system": "noninjected oocytes", "assay": "[3H]drug uptake into noninjected oocytes (background accumulation)", "format": "cell-based, Xenopus laevis", "conditions": "for rate of CQ uptake: [3H]CQ […]", "procedure": "(§1) For each treatment, 10 oocytes were transferred to a 5 mL polystyrene round bottom tube (Falcon) and washed twice with 3.5 mL of ND96 buffer, with the residual buffer removed by pipette. […] The assay was terminated by removing the reaction buffer with a pipette and washing the oocytes twice with 3.5 mL of ice-cold ND96 buffer. Each oocyte was transferred to a separate well of a white 96-well plate (NUNC or PerkinElmer), incubated overnight at room temperature in 30 μL of 10% SDS, and mixed on an orbital shaker the following day for approximately 5 min. The lysed oocyte was then combined with 150 μL of MicroScint-40 microscintillant (PerkinElmer), the plate covered with a TopSeal-A (PerkinElmer), and the radioactivity measured with a PerkinElmer MicroBeta^2 microplate liquid scintillation analyzer."}, "C4^Dd2": {"system": "C4^Dd2", "assay": "P. falciparum drug susceptibility (parasite proliferation, SYBR Safe)", "format": "cell-based", "conditions": "Plasmodium falciparum, Control, 72 h", "procedure": "(§2) Parasite proliferation was measured in 96-well plates using a fluorescent DNA-intercalating dye and a protocol described in detail previously. Briefly, cell suspensions containing erythrocytes infected with ring-stage parasites (hematocrit and parasitemia of approximately 2% and 1%, respectively) were incubated at 37°C for 72 h. The samples were frozen, thawed, and then processed by the addition of 100 μL (per well) of SYBR Safe DNA Gel Stain (Molecular Probes; 0.2 μL/mL) in a lysis buffer (20 mM Tris, 5 mM EDTA, 0.008% w/v saponin, and 0.08% v/v Triton X-100; pH 7.5). The fluorescence emanating from each well was measured immediately using a Tecan Infinite M1000 PRO microplate reader (excitation 490 nm; emission 520 nm) and the average fluorescence from wells containing the highest concentration of the drug was subtracted from the resulting values. The level of parasite proliferation in the presence of each drug concentration was expressed as a percentage of the proliferation measured in the absence of the drug for which the IC50 was being determined. The IC50s were determined in SigmaPlot by a least-squares fit of the equation y = a/ [1 ([drug]/IC50)c] to the data, where y is the percent parasite proliferation, a is the maximum change in the percent parasite proliferation, and c is a fitted constant. In all cases, five independent experiments were performed (on different days), and within each experiment measurements were averaged from three replicates."}, "C6^7G8": {"system": "C6^7G8", "assay": "P. falciparum drug susceptibility (parasite proliferation, SYBR Safe)", "format": "cell-based", "conditions": "Plasmodium falciparum, Control, 72 h", "procedure": "as §2"}, "3D7": {"system": "3D7", "assay": "P. falciparum drug susceptibility (parasite proliferation, SYBR Safe)", "format": "cell-based", "conditions": "Plasmodium falciparum, Control, 72 h", "procedure": "as §2"}, "Dd2": {"system": "Dd2", "assay": "P. falciparum drug susceptibility (parasite proliferation, SYBR Safe)", "format": "cell-based", "conditions": "Plasmodium falciparum, DD2, 72 h", "procedure": "as §2"}, "C2^GC03": {"system": "C2^GC03", "assay": "P. falciparum drug susceptibility (parasite proliferation, SYBR Safe)", "format": "cell-based", "conditions": "Plasmodium falciparum, Control, 72 h", "procedure": "as §2"}, "76I,369F-PfCRT^K1": {"target": "76I,369F-PfCRT^K1 (Plasmodium falciparum, UniProt Q9N623, A220S/K76I/M74I/N326S/N75E/Q271E/R371I/V369F)", "sequence (Q9N623 whole entry A220S/K76I/M74I/N326S/N75E/Q271E/R371I/V369F)": "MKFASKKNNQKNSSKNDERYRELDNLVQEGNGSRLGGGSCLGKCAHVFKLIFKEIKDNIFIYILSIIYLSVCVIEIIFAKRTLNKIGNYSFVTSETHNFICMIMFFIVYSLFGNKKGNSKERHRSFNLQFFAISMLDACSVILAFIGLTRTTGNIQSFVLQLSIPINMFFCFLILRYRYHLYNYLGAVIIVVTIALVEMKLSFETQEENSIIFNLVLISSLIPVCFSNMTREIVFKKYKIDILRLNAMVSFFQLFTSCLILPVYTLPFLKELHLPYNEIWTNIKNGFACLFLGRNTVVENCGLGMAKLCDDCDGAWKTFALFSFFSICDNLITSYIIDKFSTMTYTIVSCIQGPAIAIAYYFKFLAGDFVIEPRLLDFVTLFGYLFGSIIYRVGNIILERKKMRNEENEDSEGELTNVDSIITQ", "assay": "[3H]drug transport into Xenopus oocytes expressing PfCRT", "format": "cell-based", "procedure": "as §1"}, "PfCRT^K1": {"system": "PfCRT^K1", "assay": "[3H]drug transport into Xenopus oocytes expressing PfCRT", "format": "cell-based, Plasmodium falciparum", "procedure": "as §1"}, "PfCRT^Dd2": {"system": "PfCRT^Dd2", "assay": "[3H]drug transport into Xenopus oocytes expressing PfCRT", "format": "cell-based, Plasmodium falciparum", "conditions": "PfCRT^Dd2-expressing oocytes; [3H]CQ […], pH 5.5, 15 μM unlabeled CQ (S5 Fig)", "procedure": "as §1"}, "C4^Dd2 (PfCRT^Dd2)": {"system": "C4^Dd2 (PfCRT^Dd2)", "assay": "P. falciparum H+ efflux assay (DV alkalinization rate)", "format": "cell-based, Plasmodium falciparum", "procedure": "(§3) Saponin-isolated trophozoite-stage parasites containing the membrane-impermeant pH-sensitive fluorescent indicator fluorescein-dextran (10,000 MW; Life Technologies) in their DVs were prepared as outlined elsewhere. The isolated parasites were washed and suspended in a saline solution (125 mM NaCl, 5 mM KCl, 1 mM MgCl2, 20 mM glucose, 25 mM HEPES; pH 7.1) at a density of 1–3 × 10^7 cells/mL. The fluorometry experiments were performed as described previously. The pH of the DV was monitored at 37°C using a PerkinElmer Life Sciences LS50B fluorometer with a dual excitation Fast Filter accessory (excitation 490 and 450 nm; emission 520 nm). The experiments entailed monitoring the alkalinization of the DV upon addition of the V-type H^+-ATPase inhibitor concanamycin A (100 nM; Sigma-Aldrich), in the presence or absence of the drugs of interest. Half-times for DV alkalinization (t1/2) were calculated as outlined elsewhere. In all cases, five independent experiments were performed on different days."}, "C6^7G8 (PfCRT^7G8)": {"system": "C6^7G8 (PfCRT^7G8)", "assay": "P. falciparum H+ efflux assay (DV alkalinization rate)", "format": "cell-based, Plasmodium falciparum", "procedure": "as §3"}, "C2^GC03 (PfCRT^3D7)": {"system": "C2^GC03 (PfCRT^3D7)", "assay": "P. falciparum H+ efflux assay (DV alkalinization rate)", "format": "cell-based, Plasmodium falciparum", "procedure": "as §3"}, "76N-PfCRT^K1": {"system": "76N-PfCRT^K1", "assay": "[3H]drug transport into Xenopus oocytes expressing PfCRT", "format": "cell-based, Plasmodium falciparum", "conditions": "transport via 76N-PfCRT^K1 in oocytes, CQ pH 6.0, quinine and quinidine pH 5.0", "procedure": "as §1\nNote that noninjected oocytes and oocytes expressing PfCRT^3D7 take up [^3H]CQ to similar (low) levels via simple diffusion of the neutral species of the drug; this represents the ‘background’ level of [^3H]CQ accumulation in oocytes (refer to Martin et al. for full data and discussion)."}, "P. falciparum Dd2": {"system": "P. falciparum Dd2", "conditions": "Dd2 (PfCRT^Dd2); IC50 in line divided by IC50 in drug-sensitive reference strain; cited from earlier work"}, "76I-PfCRT^K1": {"target": "76I-PfCRT^K1 (Plasmodium falciparum, UniProt Q9N623, A220S/K76I/M74I/N326S/N75E/Q271E/R371I)", "sequence (Q9N623 whole entry A220S/K76I/M74I/N326S/N75E/Q271E/R371I)": "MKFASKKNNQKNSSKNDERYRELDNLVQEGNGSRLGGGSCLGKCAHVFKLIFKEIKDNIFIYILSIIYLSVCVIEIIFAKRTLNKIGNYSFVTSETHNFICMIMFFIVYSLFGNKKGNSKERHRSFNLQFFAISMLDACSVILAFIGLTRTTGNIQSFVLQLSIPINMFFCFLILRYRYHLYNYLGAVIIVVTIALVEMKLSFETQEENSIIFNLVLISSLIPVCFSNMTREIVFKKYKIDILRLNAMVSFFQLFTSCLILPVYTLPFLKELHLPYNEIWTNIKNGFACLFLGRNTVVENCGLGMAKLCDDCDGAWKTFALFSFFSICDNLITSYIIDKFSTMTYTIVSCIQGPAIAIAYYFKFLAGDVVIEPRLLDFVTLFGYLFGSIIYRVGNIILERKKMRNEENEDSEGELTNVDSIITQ", "format": "cell-based", "procedure": "as §1"}, "76K-PfCRT^K1": {"system": "76K-PfCRT^K1", "assay": "[3H]drug transport into Xenopus oocytes expressing PfCRT", "format": "cell-based, Plasmodium falciparum", "conditions": "oocytes expressing 76K-PfCRT^K1; pH 5.0, 50 μM unlabeled amantadine", "procedure": "as §1"}, "163R,356V-PfCRT^K1": {"system": "163R,356V-PfCRT^K1", "assay": "[3H]drug transport into Xenopus oocytes expressing PfCRT", "format": "cell-based, Plasmodium falciparum", "conditions": "oocytes expressing 163R,356V-PfCRT^K1; pH 5.0, 50 μM unlabeled amantadine", "procedure": "as §1"}},
  "note": "Values joined by “and” are separate entries in the source; they are usually repeats but may differ in a detail not shown here. Equal values may be shown once. Marks after values point to notes of the source that are not given here.",
  "data": [
    {"smiles": "CCN(CC)CCCC(C)Nc1ccnc2cc(Cl)ccc12", "note": "(stereo not shown) [CQ, chloroquine]", "values": [
      {"measurement": "rate of CQ uptake", "setting": "noninjected oocytes; pH 5.5, 15 μM unlabeled CQ (S5 Fig)", "value": "1.41 ± 0.02", "unit": "pmol per oocyte/h"},
      {"measurement": "rate of CQ uptake", "setting": "noninjected oocytes; pH 6.0, 15 μM unlabeled CQ (Fig 2A)", "value": "0.98 ± 0.13", "unit": "pmol per oocyte/h"},
      {"measurement": "IC50", "setting": "C4^Dd2", "value": "0.149 ± 0.0046", "unit": "µM"},
      {"measurement": "IC50", "setting": "C6^7G8", "value": "0.087 ± 0.0021", "unit": "µM"},
      {"measurement": "IC50", "setting": "3D7", "value": "0.025 ± 0.0011", "unit": "µM"},
      {"measurement": "IC50", "setting": "Dd2", "value": "0.151 ± 0.0048", "unit": "µM"},
      {"measurement": "IC50", "setting": "C2^GC03", "value": "0.027 ± 0.0016", "unit": "µM"},
      {"measurement": "Apparent Vmax", "setting": "76I,369F-PfCRT^K1; transport via 76I,369F-PfCRT^K1 in oocytes, CQ pH 6.0", "value": "13.8 pmol per oocyte/h and 13.8 ± 1.3^c (5) pmol per oocyte/h"},
      {"measurement": "rate of CQ uptake", "setting": "PfCRT^K1; oocytes expressing PfCRT^K1, [3H]CQ […], pH 6.0, 15 μM unlabeled CQ (Fig 2A)", "value": "6.75 ± 0.94", "unit": "pmol per oocyte/h"},
      {"measurement": "Apparent Vmax", "setting": "PfCRT^K1; transport via PfCRT^K1 in oocytes, CQ pH 6.0, quinine and quinidine pH 5.0", "value": "72 ± 3 (9) pmol per oocyte/h"},
      {"measurement": "Km", "setting": "PfCRT^K1; transport via PfCRT^K1 in oocytes, CQ pH 6.0, quinine and quinidine pH 5.0, 76K-PfCRT^K1 control subtracted, read-out: Apparent Km", "value": "282 ± 5", "unit": "µM"},
      {"measurement": "rate of CQ uptake", "setting": "PfCRT^Dd2", "value": "24 ± 1.3", "unit": "pmol per oocyte/h"},
      {"measurement": "effect on rate of DV alkalinization", "setting": "C4^Dd2 (PfCRT^Dd2); C4^Dd2 (CQ-resistant), CQ […], concanamycin A 100 nM", "value": "increased"},
      {"measurement": "effect on rate of DV alkalinization", "setting": "C6^7G8 (PfCRT^7G8); C6^7G8 (CQ-resistant), CQ […], concanamycin A 100 nM", "value": "increased"},
      {"measurement": "effect on rate of DV alkalinization", "setting": "C2^GC03 (PfCRT^3D7); C2^GC03 (CQ-sensitive), CQ […], concanamycin A 100 nM", "value": "without effect"},
      {"measurement": "Apparent Vmax", "setting": "76N-PfCRT^K1", "value": "48.0 ± 4.5^c,f (7) pmol per oocyte/h"},
      {"measurement": "Km", "setting": "76N-PfCRT^K1; read-out: Apparent Km", "value": "303 ± 5", "unit": "µM"},
      {"measurement": "Drug susceptibility (In vitro resistance index)", "setting": "P. falciparum Dd2", "value": "11.78 ± 0.18"},
      {"measurement": "Apparent Vmax", "setting": "76I-PfCRT^K1; transport via 76I-PfCRT^K1 in oocytes, CQ pH 6.0, quinine and quinidine pH 5.0", "value": "29.3 pmol per oocyte/h and 29.3 ± 7.2^c,f (5) pmol per oocyte/h"}
    ]},
    {"smiles": "NC12CC3CC(CC(C3)C1)C2", "note": "[amantadine]", "values": [
      {"measurement": "rate of amantadine uptake", "setting": "noninjected oocytes; [3H]amantadine 0.146 μM, pH 5.0, 50 μM unlabeled amantadine", "value": "5.4 ± 0.9", "unit": "nmol per oocyte/h"},
      {"measurement": "IC50", "setting": "C4^Dd2", "value": "8.4 ± 0.06", "unit": "µM"},
      {"measurement": "IC50", "setting": "C6^7G8", "value": "43 ± 2.9", "unit": "µM"},
      {"measurement": "IC50", "setting": "3D7", "value": "344 ± 8.9", "unit": "µM"},
      {"measurement": "IC50", "setting": "Dd2", "value": "11 ± 0.1", "unit": "µM"},
      {"measurement": "IC50", "setting": "C2^GC03", "value": "335 ± 9.5", "unit": "µM"},
      {"measurement": "amantadine transport activity", "setting": "76I,369F-PfCRT^K1; oocytes expressing 76I,369F-PfCRT^K1, pH 5.0, 50 μM unlabeled amantadine", "value": "very low (but statistically significant) level"},
      {"measurement": "rate of amantadine uptake", "setting": "PfCRT^K1; PfCRT^K1-expressing oocytes, [3H]amantadine 0.146 μM, pH 5.0, 50 μM unlabeled amantadine", "value": "12 ± 2.8", "unit": "nmol per oocyte/h"},
      {"measurement": "[3H]amantadine accumulation relative to noninjected oocytes", "setting": "PfCRT^K1; oocytes expressing PfCRT^K1, pH 5.0, 50 μM unlabeled amantadine", "value": "marked increase"},
      {"measurement": "[3H]amantadine accumulation relative to background", "setting": "76K-PfCRT^K1", "value": "failed to take up"},
      {"measurement": "[3H]amantadine accumulation relative to background", "setting": "163R,356V-PfCRT^K1", "value": "failed to take up"},
      {"measurement": "substrate of PfCRT in situ (rate of DV alkalinization)", "setting": "C4^Dd2 (PfCRT^Dd2); C4^Dd2, PfCRT^Dd2, amantadine 10 μM", "value": "is a substrate"},
      {"measurement": "substrate of PfCRT in situ (rate of DV alkalinization)", "setting": "C6^7G8 (PfCRT^7G8); C6^7G8, PfCRT^7G8, amantadine 10 μM", "value": "is a substrate"},
      {"measurement": "substrate of PfCRT in situ (rate of DV alkalinization)", "setting": "C2^GC03 (PfCRT^3D7); C2^GC03, wild-type PfCRT (PfCRT^3D7), amantadine 10 μM", "value": "not of wild-type PfCRT"},
      {"measurement": "[3H]amantadine accumulation relative to noninjected oocytes", "setting": "76I-PfCRT^K1; oocytes expressing 76I-PfCRT^K1, pH 5.0, 50 μM unlabeled amantadine", "value": "marked increase"}
    ]}
  ]
}
